Values joined by “and” are separate entries in the source; they are usually repeats but may differ in a detail not shown here. Equal entries are not always repeated. Where two headings read alike, the source gives them in different places. One block for each molecule: values may come before it.
Key:
[1] = system: SK-N-MC neuroepithelioma cells; test: 59Fe release from prelabelled cells (iron efflux); type: cell-based, human; conditions: 3 hr labelling, 3 hr reincubation, ligands 50 μM, DFO 100 μM, FIG. 2A screening experiment
Protocol: The effect of chelators on ^59Fe uptake from ^59Fe-Tf and ^59Fe release from prelabelled cells was studied using standard procedures reported previously (Richardson et al., 1994, J. Lab Clin. Med. 124 660–71). The amount of ^59Fe internalized by the cells was measured by incubation with the general protease pronase (1 mg/ml) for 30 min at 4° C. to remove membrane-bound ^59Fe and Tf (Richardson et al., 1990; Baker et al., 1998, Biochim. Biophys. Acta 1380 21–30).
The efflux of ^59Fe from SK-N-MC cells was examined after a 3 hr labelling period with ^59Fe-Tf (0.75 μM) followed by a 3 hr reincubation in the presence and absence of DFO (100 μM) or the remainder of the ligands at 50 μM (FIG. 2A).
Table 1. The effect of DFO, 311, PCTH, PCBH, or PCBHH on ^59Fe release from BE-2 neuroblastoma cells, SK-N-MC neuroepithelioma cells, and SK-Mel-28 melanoma cells. Cells were labeled for 3 h at 37° C. with ^59Fe-transferrin (0.75 μM), washed, and then reincubated with the chelators for 3 h at 37° C. […] Results are Mean±SD of three determinations in a typical experiment.

[2] = system: SK-N-MC neuroepithelioma cells; test: internalized 59Fe uptake from 59Fe-transferrin; type: cell-based, human; conditions: SK-N-MC; 3 hrs at 37° C.; chelators 50 μM, DFO 100 μM; FIG. 2B screening experiment
Protocol: The effect of chelators on ^59Fe uptake from ^59Fe-Tf and ^59Fe release from prelabelled cells was studied using standard procedures reported previously (Richardson et al., 1994, J. Lab Clin. Med. 124 660-71). The amount of ^59Fe internalized by the cells was measured by incubation with the general protease pronase (1 mg/ml) for 30 min at 4° C. to remove membrane-bound ^59Fe and Tf (Richardson et al., 1990; Baker et al., 1998, Biochim. Biophys. Acta 1380 21-30). […] To determine the ability of the chelators to inhibit ^59Fe uptake from ^59Fe-Tf (0.75 μM). […] Table 2. The effect of DFO, 311, […], or PCBHH on internalized ^59Fe uptake from ^59Fe-transferrin by BE-2 neuroblastoma cells, SK-N-MC neuroepithelioma cells, and SK-Mel-28 melanoma cells. Cells were incubated with the chelators and ^59Fe-transferrin (0.75 μM) for 3 h at 37° C., washed, and incubated for 30 min at 4° C. with pronase (1 mg/ml) to separate the internalized from the membrane-bound ^59Fe. All chelators were screened at a concentration of 50 μM except for DFO which was examined at 100 μM. Results are mean±SD (three determinations) from a typical experiment.

[3] = system: iron-regulatory proteins (IRPs); test: iron regulatory protein gel-retardation assay (IRP-RNA binding activity); type: cell-based, human; conditions: SK-N-MC cells, 20 hr incubation; chelators 25 μM, DFO 100 μM, FAC 100 μg/ml
Protocol: FIG. 5. The effect of the chelators on the RNA-binding activity of the iron-regulatory proteins (IRPs) in the SK-N-MC neuroepithelioma cells. Cells were incubated for 20 h with either medium alone (control), ferric ammonium citrate (FAC: 100 μg/ml), DFO (100 μM), or the other chelators (25 μM).
A gel-retardation assay was used to measure the interaction between the IRPs and IRE using established techniques (Leibold et al., […]. Proc. Natl. Acad. Sci. USA 85 2171–5; Müllner et al., 1989 Cell 58 373–82). Briefly, after incubation with medium alone (control) or medium containing ferric ammonium citrate (100 μg/ml: Aldrich Ltd., Sydney, Australia) or the chelator. […] cells were washed with ice-cold phosphate-buffered saline (PBS) and lysed at 4° C. in 40 μl of ice-cold Munro extraction buffer (10 mM HEPES, pH 7.6, 3 mM MgCl2, 40 mM KCl, 5% glycerol, 1 MM dithiothreitol and 0.5% Nonidet P-40). After lysis, the samples were then centrifuged at 10,000 rpm for 3 mins at 4° C. to remove nuclei and the supernatant stored at −70° C. Frozen cytoplasmic extracts were thawed on ice and then centrifuged at 15,000 rpm for 10 min at 4° C. The protein concentration of the soluble supernatant was determined using the BioRad protein assay (BioRad Ltd., USA). Samples of cytoplasmic extracts were diluted to a protein concentration of 100 μg/ml in Munro buffer without Nonidet P-40 and 1 μg aliquots were analyzed for IRP by incubation with 0.1 ng (approximately 1×10^5 cpm) of ^32P-labelled pGL66 RNA transcript (Leibold et al., 1988). The riboprobe was transcribed in vitro from linearized plasmid templates using SP6 RNA polymerase in the presence of α-^32P UTP (Dupont, NEN). This latter reaction was performed using the Promega Riboprobe In Vitro Transcription Kit (Promega, Madison, Wis., USA). The probe was subsequently purified on a 6% urea/PAGE gel. To form RNA-protein complexes, cytoplasmic extracts containing 1 μg of protein were incubated for 10 mins at room temperature with the ^32P-labelled riboprobe. Unprotected probe was degraded by incubation with 1 U of RNAse T1 for 10 mins at room temperature. Heparin (Sigma) at a final concentration of 5 mg/ml was then added and incubated with the extract for another 10 min at room temperature to exclude non-specific binding. RNA-protein complexes were analyzed in 6% non-denaturing polyacrylamide gels at 4° C. as described by Konarska et al., 1986, Cell 46 845–55. Gels were dried, covered in plastic film and exposed to Kodak XAR films at −70° C. with an intensifying screen.
An important effect of intracellular Fe depletion using DFO is the activation of RNA-binding activity of the iron regulatory proteins (IRP's) (Hentze et al., 1996, Proc. Natl. Acad. Sci. USA 93 8175–82). […] The present inventors examined the effect of a 20 hr incubation with 311, PIH and the PCIH analogues (25 μM) on IRP-RNA binding activity in SK-N-MC cells. In all experiments, DFO (100 μM) was used as a positive control to deplete cells of Fe and increase IRP-RNA binding activity. In contrast, ferric ammonium citrate (FAC: 100 μg/ml) was used to donate Fe to cells and reduce IRP-RNA binding.

[4] = system: 59Fe-loaded reticulocytes; test: mobilisation of 59Fe from 59Fe-loaded reticulocytes (mitochondrial Fe overload model); type: cell-based, rabbit; conditions: for cellular 59Fe mobilized from 59Fe-loaded reticulocytes after 240 min: chelators 200 μM, 240 min of incubation; for cellular 59Fe released from 59Fe-loaded reticulocytes, 1 h reincubation (FIG. 9): chelator concentration 200 μM (range 10–200 μM), reincubated 1 h at 37° C.
Protocol: (§1) FIG. 7. The effect of reincubation time with the Fe chelators on ^59Fe mobilization from ^59Fe-loaded reticulocytes. The cells were labelled with ^59Fe-transferrin (3.75 μM) in the presence of the heme synthesis inhibitor, succinylacetone (1 mM), and incubated with the cells for 1 h at 37° C. The ^59Fe-labelled reticulocytes were then incubated with the chelators (200 μM) for 15–240 min at 37° C. The results are Mean±SD (3 determinations) in a typical experiment of three performed.
as §1, with “9.” for “7.”, “chelator concentration” for “reincubation time with the Fe chelators”, “(10–200” for “(200”
Reticulocytosis was induced by standard procedures (Richardson, D. R., Ponka, P and Vyoral, D (1996) Blood 87, 3477–3488) in New Zealand white rabbits by repeated phlebotomy by cardiac puncture using a protocol approved by the McGill University Animal Care Committee. Reticulocytes were identified based on staining with new methylene blue, and cell counts were determined using an improved Neubauer counting chamber.
Reticulocytes were obtained from chronically bled rabbits as described above and were incubated with 1 mM succinylacetone (SA: Sigma) to inhibit heme synthesis. After a 15 min preincubation in the presence of SA, ^59Fe-Tf ([…]) was added and incubated with the cells for 1 H at 37° C. with shaking. After this incubation the reticulocytes were washed three times with ice-cold PBS to remove non-specifically bound ^59Fe-Tf. The washed ^59Fe-labelled reticulocytes (30–35 μL) were incubated in buffered salt solution (250 μL final volume) with the apochelators. The SA was present in all incubations with the chelators to prevent the utilization of non-heme ^59Fe for heme synthesis. After the incubation, ^59Fe was measured both in washed reticulocytes and in the medium, and the percentage of ^59Fe mobilized from the reticulocytes was then calculated.

aqueous solubility = type: physicochemical; conditions: water / aqueous solutions
[5] = system: SK-N-MC neuroepithelioma cells; test: 3H-thymidine, 3H-leucine or 3H-uridine incorporation; type: cell-based, human; conditions: 20 hr with chelators 50 μM, DFO 100 μM, then label 2 h, Mean±SD
Protocol: Labelling of cells with ^3H-thymidine (20 Ci/mmol: Dupont NEN, MA, U.S.A.), ^3H-uridine (42.7 Ci/mmol/Dupont NEN, MA, U.S.A.) and ^3H-leucine (52 Ci/mmol: Dupont NEN) was estimated after precipitation with trichloroacetic acid (TCA). After a 20 hr incubation with the chelators, ^3H-leucine, ^3H-uridine or ^3H-thymidine (1 μCi/ml) were then added for 2 hrs at 37° C. Subsequently, petri dishes containing cell cultures were placed on ice and washed four times with ice-cold Hanks' balanced salt solution (BSS) and the cells detached from the plate using 1 mM EDTA in Ca/Mg-free saline. The cells were then pelleted by centrifugation, the supernatant removed and the pellet frozen at −70° C. After thawing the cells on ice, 1 ml of ice-cold 20% TCA was added and the solution then vortexed and kept on ice for 1 hr with periodic mixing. This solution was then centrifuged at 15,000 rpm for 15 mins at 4° C. and the supernatant removed. The pellet was then washed twice with 1 ml of ice-cold 10% TCA. The pellet was dissolved in 0.5 ml of 1 M NaOH and transferred to scintillation tubes with 3 ml of scintillant. Radioactivity was measured on a β-scintillation counter (LKB Wallace, Finland).
Table 3. The effect of the chelators on ^3H-thymidine, ^3H-leucine, or ^3H-uridine incorporation into SK-N-MC neuroepithelioma cells. Cells were incubated for 20 hr at 37° C. with either DFO (100 μM) or the other chelators (50 μM). Following this, either ^3H-thymidine, ^3H-leucine, or ^3H-uridine (1 μCi/mL) were added and the cells incubated for an additional 2 h at 37° C. (see Methods for details). Results are Mean±SD (4–5 determinations) from a typical experiment of 2–4 experiments performed.

[6] = system: iron-regulatory proteins (IRPs); test: iron regulatory protein gel-retardation assay (IRP-RNA binding activity); type: cell-based, human
[7] = Fe-overloaded patients (Olivieri et al.); cited from earlier work

Molecule: Nc1ccc(C(=O)NN=Cc2ccccn2)cc1 [PCAH, 2-pyridylcarboxaldehyde p-aminobenzoyl hydrazone]
release of cellular 59Fe (FIG. 2A) [1]: did not appreciably increase | 59Fe uptake from 59Fe-Tf, % of the control value (FIG. 2B) [2]: no effect | IRP-RNA binding activity compared to the control (FIG. 5) [3]: decreased | cellular 59Fe mobilized from 59Fe-loaded reticulocytes after 240 min ([4]; FIG. 7): 15%

Molecule: O=C(NN=Cc1ccccn1)c1ccc(O)cc1 [PCHH, 2-pyridylcarboxaldehyde p-hydroxybenzoyl hydrazone]
release of cellular 59Fe (FIG. 2A) [1]: did not appreciably increase | 59Fe uptake from 59Fe-Tf, % of the control value (FIG. 2B) [2]: no effect | IRP-RNA binding activity compared to the control (FIG. 5) [3]: decreased | cellular 59Fe released from 59Fe-loaded reticulocytes, 1 h reincubation (FIG. 9) ([4]; 3 determinations): very low activity | cellular 59Fe mobilized from 59Fe-loaded reticulocytes after 240 min ([4]; FIG. 7): 6%

Molecule: O=C(NN=Cc1ccccn1)c1ccncc1 [PCIH, 2-pyridylcarboxaldehyde isonicotinoyl hydrazone]
59Fe uptake from 59Fe-Tf, % of the control value (FIG. 2B) [2]: slightly more effective than DFO | IRP-RNA binding activity compared to the control (FIG. 5) [3]: little effect | cellular 59Fe mobilized from 59Fe-loaded reticulocytes after 15 min ([4]; chelator 200 μM, 15 min incubation, 37° C., FIG. 7, 3 determinations): 21±1% | cellular 59Fe released from 59Fe-loaded reticulocytes, 1 h reincubation (FIG. 9) ([4]; 3 determinations): 31±1% | cellular 59Fe release from reticulocytes as a function of incubation time (FIG. 7), rank in words ([4]; eight compounds, 200 μM, reincubated up to 240 min): most effective

Molecule: Cc1c(O)c(=O)ccn1C [deferiprone, 1,2-dimethyl-3-hydroxypyrid-4-one]
adverse outcome of treatment of patients [7]: hepatic fibrosis and an increase in liver Fe levels

Molecule: ferric ammonium citrate [FAC]
IRP-RNA binding activity compared to the control (FIG. 5) [6]: appreciable decrease

Second part, led by results:

aqueous solubility, in words (aqueous solubility): most soluble
Molecule: Cl.Cl.O=C(NN=Cc1ccccn1)c1ccncc1 [PCIH-2HCl]

aqueous solubility, in words (aqueous solubility): lowest aqueous solubility of the series
Molecule: Cl.O=C(NN=Cc1ccccn1)c1cccs1 [PCTH-HCl]

IRP-RNA binding activity compared to the control (FIG. 5) [3]: little effect | IRP-RNA binding activity at higher concentrations ([6]; higher concentrations than 25 μM, not specified): did increase
Molecule: Cc1ncc(CO)c(C=NNC(=O)c2ccncc2)c1O [PIH, pyridoxal isonicotinoyl hydrazone, reference compound]
3H-Leucine incorporation, % Control [5]: 84 ± 5 % Control | 3H-Thymidine incorporation, % Control [5]: 52 % Control and 52 ± 9 % Control | 3H-Uridine incorporation, % Control [5]: 56 ± 9 % Control | cellular 59Fe released from 59Fe-loaded reticulocytes, 1 h reincubation (FIG. 9) ([4]; 3 determinations): 18±1%

— patent US6989397B1, “Iron chelators and uses thereof” (University of Queensland, priority 1999, dated 2006)
